Data reported in publication PMC5794925, “Expression and specificity of a chitin deacetylase from the nematophagous fungus Pochonia chlamydosporia potentially involved in pathogenicity” (Scientific Reports, 2018).

Target: T1, PcCDA catalytic domain (Pochonia chlamydosporia, UniProt A0A179FW77)
T1 construct: gene VFPPC_13269
T1 sequence (A0A179FW77 94-309): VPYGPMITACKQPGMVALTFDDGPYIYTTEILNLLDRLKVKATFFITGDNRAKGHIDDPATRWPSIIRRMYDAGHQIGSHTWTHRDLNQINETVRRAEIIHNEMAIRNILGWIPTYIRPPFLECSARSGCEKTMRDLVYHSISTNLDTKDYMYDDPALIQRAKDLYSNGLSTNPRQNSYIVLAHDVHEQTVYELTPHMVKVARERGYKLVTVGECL
Test: HPLC-MS of deacetylated products
Assay type: biochemical
Conditions: 0.2 mM substrate, 3.2 nM enzyme, 50 mM K2HPO4, 300 mM NaCl, pH 8.0, 37 °C; refolded with Zn2+

CC(=O)N[C@H]1[C@H](O[C@H]2[C@H](O)[C@@H](NC(C)=O)C(O)O[C@@H]2CO)O[C@H](CO)[C@@H](O[C@@H]2O[C@H](CO)[C@@H](O[C@@H]3O[C@H](CO)[C@@H](O)[C@H](O)[C@H]3NC(C)=O)[C@H](O)[C@H]2NC(C)=O)[C@@H]1O (stereo partly shown) [A4, GlcNAc4]
HPLC-MS of deacetylated products: With the A4 substrate, the enzyme was also active but slower than with the A5
